Data on eleven molecules can be found in US20240294545A1 (CSPC Zhongqi Pharmaceutical Technology (Shijiazhuang) Co., …, priority 2020, published 2024).

Structures are written as SMILES. Where two headings read alike, the source gives them in different places. Marks after values point to notes of the source that are not given here.

One experiment concerns the target ATM (Homo sapiens (Human), UniProt Q13315). In words: Caliper mobility shift assay for ATM. It counts as biochemical. Particulars: read-out: IC50 of inhibitory activity on ATM kinase. The protocol: 1.2 Determination of the Inhibitory Activities of Compounds on ATM: Caliper Mobility Shift Assay for ATM
To a 96-well plate, 98 μL of DMSO and 2 μL of the 10 mM stock solution were added and mixed evenly so that the concentration of the solution was 200 μM.
Based on the inhibitory rates of the compound at different concentrations, IC50 was calculated according to the formula: Y=Bottom+(Top−Bottom)/(1+(IC50/X)^HillSlope).

Experiment [1] concerns subcutaneous xenograft tumor of human colon cancer cell line HT-29. In words: HT-29 subcutaneous xenograft, combined with irinotecan liposome injection. The class given is in vivo, NU/NU mice. The protocol:
7 Efficacy Test of the Compounds of the Present Disclosure Combined with Irinotecan Liposome Injection on Inhibiting the Growth of Subcutaneous Xenograft Tumor of Human Colon Cancer Cell Line HT-29
7.1 Experimental Animals: NU/NU Mice, SPF, Female, 20 to 30 g.
Irinotecan liposome injection (HE072), 43 mg: 10 mL, milky white liquid, batch No. B37191202, provided by Preparation Research Institute 2 from CSPC Zhongqi Pharmaceutical Technology (Shijiazhuang) Co., Ltd., diluted to an appropriate concentration with 5% glucose injection while testing.
HT-29 cell, provided by Nanjing Kebai Biotechnology Co., Ltd.; 5A culture medium:fetal bovine serum=90%:10%, 37° C., 5% CO2.
NU/NU nude mice were subcutaneously inoculated with HT-29 human colon cancer cells. When the mean tumor volume reached about 170 mm^3 (9 days after inoculation), the animals were evenly divided into groups according to the tumor volume (d0), with 6 mice in each group. 10 mg/kg of HE072 was administered intraperitoneally once a week for 1 time. Vehicle control, 25 mg/kg of A-6, 25 mg/kg of A-46, and 25 mg/kg of AZD1390 were administered intragastrically once a day, from Monday to Thursday every week except Friday to Sunday, for 1 week (4 times). The tumor volume was measured twice a week, the body weight of mouse was weighed every day, and the data were recorded. The tumor volume (TV) was calculated according to the formula: TV=½×a×b2, wherein a and b represent the long and short diameters of tumor, respectively. Tumor growth inhibitory rate TGI (%)=[1−(Ti−T0)/(Vi−V0)]×100, wherein Ti represents the mean tumor volume of a given treatment group on a certain day; TO represents the mean tumor volume of this treatment group at the beginning of administration; Vi represents the mean tumor volume of the vehicle control group on a certain day (the same day as that in Ti); V0 represents the mean tumor volume of the vehicle control group at the beginning of administration. At the end of the test (d17), the animals were sacrificed, the tumors were stripped and weighed, and the tumor weight inhibitory rates were calculated.

Experiment [2] has as its system subcutaneous xenograft tumor of human glioblastoma LN-18. In words: LN-18 subcutaneous xenograft, combined with radiotherapy. It counts as in vivo, NOG mice. Particulars: day 17. Here is the method: 9 Efficacy Test of the Compounds of the Present Disclosure Combined with Radiotherapy on Inhibiting the Growth of Subcutaneous Xenograft Tumor of Human Glioblastoma LN-18
9.1 Experimental Animals: NOG Mice, SPF, Female, 18 to 22 g.
LN-18 tumor cells, DMEM medium:fetal bovine serum=95%:5%, accompanied by adding 100 U/mL penicillin and 100 μg/mL streptomycin, 37° C., 5% CO2.
LN18 tumor cells resuspended in serum-free DMEM medium were inoculated subcutaneously in the right costal region of experimental animals at 1.5*10^7/0.15 mL, and the animals were grouped when the tumor grew to 100 to 150 mm^3. Radiotherapy was performed 1 h after administration of compounds.
Tumor volume: The tumor volume was measured twice a week with a vernier caliper, and the long diameter and short diameter of tumor were measured. The tumor volume was calculated as follows: tumor volume (TV)=0.5×long diameter×short diameter^2. Tumor growth inhibitory rate (TGI %) was calculated according to the tumor volume. TVXn represents the mean tumor volume on day n of the treatment group, TVX0 represents the mean tumor volume on day 0 of the treatment group, TVMn represents the mean tumor volume on day n of the control group, and TVM0 represents the mean tumor volume on day 0 of the control group.

The test system of another experiment is ATM-phosphorylated KAP1. In words: Intracellular ATM-phosphorylated KAP1 level, ICW assay in MCF7 cells. Particulars: MCF7 cells, 2 h compound, 10 Gy irradiation, further 1 h, read-out: pKAP1 IC50. The class given is cell-based, Human. Here is the method:
4 Inhibition on Intracellular ATM-Phosphorylated KAP1 Level by the Compounds of the Present Disclosure: ICW Assay
• Cell: Human breast cancer cell line MCF7 • Materials and reagents:
4.2 Experimental Procedures
• (1) Cell inoculation • MCF7 cells were inoculated on a 384-well plate, 10000 cells/well (25 μL/well), and cultured overnight at 37° C. with 5% CO2. • (2) Activity detection • 1) The compound was formulated into a 100 mM solution with DMSO and then sequentially diluted with a gradient of 1:3 to yield a total of 10 concentration gradients, wherein the maximum concentration was 100 μM. • 2) 25 nL of each of the compound solutions with gradient concentrations prepared in step 1) was added to each well of the cell plate (Corning #356663) by using I-DOT One, resulting in a final concentration of 100 nM (maximum dose). • 3) The cell plate containing compound was incubated at 37° C. with 5% CO2 for 2 h. After 2 h, the cell plate was irradiated with a dose of 10 Gy, and then further incubated for 1 h. • 4) 25 μL of 8% paraformaldehyde was added to each well, followed by incubating at room temperature for 20 min. • 5) The 8% paraformaldehyde was discarded, followed by adding 0.1% TrintonX-100 and incubating at room temperature for 30 min. • 6) Odessey blocking buffer was added at 50 μL/well, followed by incubating at room temperature for 1.5 h. • 7) The Odessey blocking buffer was discarded, and then a primary antibody (Phospho-KAP1, 1:2000 dilution) was added, followed by incubating overnight at 4° C. • 8) The primary antibody was removed, followed by washing with PBS+0.1% Tween 20 for 5 times. • 9) DNA dye DRAQ5 coated with a second antibody (IRDye 800CW Goat anti-Rabbit, 1:4000 dilution) was added, followed by incubating at room temperature for 1 h. • 10) The second antibody was removed, followed by washing with PBS+0.1% Tween 20 for 5 times. • 11) PBS+0.1% Tween 20 was sucked off with Odyssey. • (3) Data analysis • 1) the relative ratio of Channel 800/Channel 700 for each well was detected. • 2) % of KAP1 phosphorylation was calculated according to the following formula:
% of KAP1 phosphorylation=[(Ratiocmpd−(Ratio)Positive)/((Ratio)Vehicle−(Ratio)Positive]*100 • (Ratio)Positive: the mean value of the test values of each positive control well in the test cell plate; • (Ratio)Vehicle: the mean value of the test values of each negative control well in the test cell plate. • 3) the IC50 of each compound was calculated and the dose-effect curve was plotted: % of KAP1 phosphorylation and log of compound's concentration were fit by using Graphpad 8.0 so as to calculate the IC50.
[formula] • X: log of compound's concentration • Y: % of KAP1 phosphorylation

Where [3] appears, read: compound 25 mg/kg intragastric + irinotecan liposome 10 mg/kg ip, day 16.
[4] abbreviates: compound 25 mg/kg intragastric + irinotecan liposome 10 mg/kg ip, end of test.
Where [5] appears, read: compound 10 mg/kg intragastric qd × 5 + IR 1 Gy.
Where [6] appears, read: compound 20 mg/kg intragastric qd × 5 + IR 1 Gy.

Sequence of ATM (Q13315 whole entry): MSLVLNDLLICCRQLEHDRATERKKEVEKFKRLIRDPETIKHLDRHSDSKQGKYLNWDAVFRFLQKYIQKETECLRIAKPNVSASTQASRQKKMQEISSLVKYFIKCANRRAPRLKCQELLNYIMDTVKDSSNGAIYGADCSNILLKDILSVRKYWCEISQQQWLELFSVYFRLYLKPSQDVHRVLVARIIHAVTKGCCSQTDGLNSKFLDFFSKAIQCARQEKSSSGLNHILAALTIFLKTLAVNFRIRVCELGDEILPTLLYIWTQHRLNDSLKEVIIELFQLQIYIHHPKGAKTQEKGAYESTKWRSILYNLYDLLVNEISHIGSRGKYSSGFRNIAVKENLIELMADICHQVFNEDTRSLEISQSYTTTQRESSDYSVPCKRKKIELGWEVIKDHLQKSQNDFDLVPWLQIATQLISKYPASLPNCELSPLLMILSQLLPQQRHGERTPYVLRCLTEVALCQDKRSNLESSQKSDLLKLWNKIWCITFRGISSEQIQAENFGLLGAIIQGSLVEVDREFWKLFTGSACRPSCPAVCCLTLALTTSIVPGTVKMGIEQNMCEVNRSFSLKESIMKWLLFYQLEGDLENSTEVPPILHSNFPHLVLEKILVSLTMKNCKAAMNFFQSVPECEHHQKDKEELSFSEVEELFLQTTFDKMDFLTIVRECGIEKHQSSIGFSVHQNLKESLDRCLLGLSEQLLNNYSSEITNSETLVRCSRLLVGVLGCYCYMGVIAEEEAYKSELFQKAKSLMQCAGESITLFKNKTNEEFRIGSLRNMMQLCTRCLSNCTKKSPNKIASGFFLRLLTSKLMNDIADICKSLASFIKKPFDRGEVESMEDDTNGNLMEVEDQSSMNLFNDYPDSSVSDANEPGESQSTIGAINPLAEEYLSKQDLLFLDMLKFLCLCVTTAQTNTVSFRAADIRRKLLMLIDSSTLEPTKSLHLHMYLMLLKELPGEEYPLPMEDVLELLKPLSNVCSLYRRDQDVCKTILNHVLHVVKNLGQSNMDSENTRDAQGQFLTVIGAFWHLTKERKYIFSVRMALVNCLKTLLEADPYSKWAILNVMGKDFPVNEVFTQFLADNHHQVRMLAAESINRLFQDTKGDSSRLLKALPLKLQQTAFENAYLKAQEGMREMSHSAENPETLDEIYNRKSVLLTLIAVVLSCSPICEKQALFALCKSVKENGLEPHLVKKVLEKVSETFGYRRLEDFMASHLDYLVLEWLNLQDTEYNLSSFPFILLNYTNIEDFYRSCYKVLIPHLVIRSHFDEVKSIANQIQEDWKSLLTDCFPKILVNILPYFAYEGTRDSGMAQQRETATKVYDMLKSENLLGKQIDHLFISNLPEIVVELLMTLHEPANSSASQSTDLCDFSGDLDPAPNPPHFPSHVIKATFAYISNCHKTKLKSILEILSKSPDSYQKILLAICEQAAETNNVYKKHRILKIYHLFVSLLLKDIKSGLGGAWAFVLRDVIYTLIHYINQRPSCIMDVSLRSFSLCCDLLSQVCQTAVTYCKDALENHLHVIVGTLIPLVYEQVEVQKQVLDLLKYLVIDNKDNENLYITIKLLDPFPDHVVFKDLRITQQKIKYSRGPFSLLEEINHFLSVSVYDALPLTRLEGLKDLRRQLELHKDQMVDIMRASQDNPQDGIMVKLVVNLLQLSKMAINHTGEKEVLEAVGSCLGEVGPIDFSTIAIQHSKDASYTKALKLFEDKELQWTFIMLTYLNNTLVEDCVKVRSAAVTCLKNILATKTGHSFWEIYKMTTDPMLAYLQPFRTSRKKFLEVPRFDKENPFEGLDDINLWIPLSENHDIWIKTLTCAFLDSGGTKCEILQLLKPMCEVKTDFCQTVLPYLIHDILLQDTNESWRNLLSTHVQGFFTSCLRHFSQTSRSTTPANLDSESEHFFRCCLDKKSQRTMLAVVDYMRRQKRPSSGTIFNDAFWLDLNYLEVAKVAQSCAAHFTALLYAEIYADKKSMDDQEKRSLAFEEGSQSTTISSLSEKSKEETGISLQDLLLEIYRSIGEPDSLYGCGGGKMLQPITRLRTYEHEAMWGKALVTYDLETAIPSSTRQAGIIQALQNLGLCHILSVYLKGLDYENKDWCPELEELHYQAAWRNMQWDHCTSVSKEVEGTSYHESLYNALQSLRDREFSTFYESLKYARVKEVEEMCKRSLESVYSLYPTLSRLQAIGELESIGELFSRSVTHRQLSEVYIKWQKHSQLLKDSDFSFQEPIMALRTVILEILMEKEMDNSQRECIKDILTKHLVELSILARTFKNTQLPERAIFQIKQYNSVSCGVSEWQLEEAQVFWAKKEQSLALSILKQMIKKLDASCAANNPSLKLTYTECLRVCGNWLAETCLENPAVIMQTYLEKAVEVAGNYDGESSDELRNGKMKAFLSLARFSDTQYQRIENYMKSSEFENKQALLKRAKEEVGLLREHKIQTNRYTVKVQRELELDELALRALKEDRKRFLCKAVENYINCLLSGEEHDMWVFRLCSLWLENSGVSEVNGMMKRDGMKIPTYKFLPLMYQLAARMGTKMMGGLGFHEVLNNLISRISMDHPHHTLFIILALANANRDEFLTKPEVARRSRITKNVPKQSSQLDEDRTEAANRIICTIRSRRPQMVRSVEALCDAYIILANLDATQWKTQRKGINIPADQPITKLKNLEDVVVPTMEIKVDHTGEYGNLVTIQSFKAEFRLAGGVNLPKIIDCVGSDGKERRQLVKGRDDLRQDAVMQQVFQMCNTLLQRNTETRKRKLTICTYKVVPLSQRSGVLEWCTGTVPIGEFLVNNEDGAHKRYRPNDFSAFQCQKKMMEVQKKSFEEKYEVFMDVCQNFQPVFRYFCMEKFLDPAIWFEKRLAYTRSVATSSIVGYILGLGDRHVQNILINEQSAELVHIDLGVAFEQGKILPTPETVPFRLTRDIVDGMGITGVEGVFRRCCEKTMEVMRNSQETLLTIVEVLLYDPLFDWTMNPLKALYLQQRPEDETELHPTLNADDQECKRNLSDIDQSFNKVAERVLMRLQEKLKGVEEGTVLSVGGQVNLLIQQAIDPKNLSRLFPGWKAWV

Consider `Cn1c(=O)n2c3c4c(c(-c5ccc(OCCCN6CCCCC6)nc5)c(F)cc4ncc31)OCC2(C)C` [Example A-6, 6-fluoro-2,10,10-trimethyl-7-(6-(3-(piperidin-1-yl)propoxy)pyridin-3-yl)-9,10-dihydro-8-oxa-2,4,10a-triazanaphtho[2,1,8-cde]azulen-1(2H)-one], for which, on ATM, the IC50 worked out at 0.37 nM. Further, the “inhibitory effect on tumor volume and tumor weight, in words” value in experiment [1] (combined with irinotecan liposome injection, compared with AZD1390) is “higher than those of AZD1390”. In addition, in experiment [1] (setting [3]), the “D 16 TGI” value was found to be 100.4% and the “D 16 TV (MEAN ± SD)” value is given as 163.8 ± 62.8***^### mm^3. Further, in experiment [1] (setting [4]), the Tumor weight was 0.12 ± 0.03 g and the “Tumor weight inhibitory rate” value is reported as 82.4%.

For `C[C@H]1CNc2c(-c3ccc(OCCCN4CCCCC4)nc3)c(F)cc3ncc4c(c23)n1c(=O)n4C` [Example A-191, (S)-6-fluoro-2,10-dimethyl-7-(6-(3-(piperidin-1-yl)propoxy)pyridin-3-yl)-2,8,9,10-tetrahydro-1H-2,4,8,10a-tetraazanaphtho[2,1,8-cde]azulen-1(2H)-one], the IC50 on ATM stood at 0.69 nM. Moreover, in experiment [2] (setting [5]), the “D 17 TGI” value is on record as 76.9% and the “D 17 TV (MEAN ± SD)” value is 347 ± 64***^ mm^3.

For the molecule `Cn1c(=O)n2c3c4c(c(-c5ccc(OCCCN6CCCCC6)nc5)c(F)cc4ncc31)NCC21CCC1` [Example A-192, 6-fluoro-2-methyl-7-(6-(3-(piperidin-1-yl)propoxy)pyridin-3-yl)-8,9-dihydrospiro[2,4,8,10a-tetraazanaphtho[2,1,8-cde]azulene-10,1′-cyclobutan]-1(2H)-one], the IC50 on ATM is 0.53 nM. In addition, the IC50 with ATM-phosphorylated KAP1 (Homo sapiens, light or radiation study) was 1.44 nM. Also, in experiment [2] (setting [6]), the “D 17 TGI” value amounted to 79.6% and the “D 17 TV (MEAN ± SD)” value is 323 ± 114***^# mm^3.

Take `CC(C)C[C@H]1COc2c(-c3ccc(OCCCN4CCCCC4)nc3)c(F)cc3ncc4c(c23)n1c(=O)n4C` [Example A-9, (S)-6-fluoro-10-isobutyl-2-methyl-7-(6-(3-(piperidin-1-yl)propoxy)pyridin-3-yl)-9,10-dihydro-8-oxa-2,4,10a-triazanaphtho[2,1,8-cde]azulen-1(2H)-one]: on ATM, the IC50 turned out to be 0.2 nM.

In the case of `Cn1c(=O)n2c3c4c(c(-c5ccc(OCCCN6CCCCC6)nc5)ccc4ncc31)OCC2(C)C` [Example A-67, 2,10,10-trimethyl-7-(6-(3-(piperidin-1-yl)propoxy)pyridin-3-yl)-9,10-dihydro-8-oxa-2,4,10a-triazanaphtho[2,1,8-cde]azulen-1(2H)-one], the IC50 at ATM was 0.26 nM.

Regarding `C[C@@H]1COc2c(-c3ccc(OCCCN(C)C)nc3)ccc3ncc4c(c23)n1c(=O)n4C` [Example A-181, (R)-7-(6-(3-(dimethylamino)propoxy)pyridin-3-yl)-2,10-dimethyl-9,10-dihydro-8-oxa-2,4,10a-triazanaphtho[2,1,8-cde]azulen-1(2H)-one], the IC50 on ATM was 0.72 nM.

For the molecule `Cn1c(=O)n2c3c4c(c(-c5ccc(OCCCN6CCCCC6)nc5)ccc4ncc31)NCC21CCC1` [Example A-202, 2-methyl-7-(6-(3-(piperidin-1-yl)propoxy)pyridin-3-yl)-8,9-dihydrospiro[2,4,8,10a-tetraazanaphtho[2,1,8-cde]azulene-10,1′-cyclobutan]-1(2H)-one], the IC50 at ATM was determined as 0.23 nM.

Regarding `CC[C@H]1COc2c(-c3ccc(OCCCN4CCCCC4)nc3)ccc3ncc4c(c23)n1c(=O)n4C` [Example A-186, (S)-10-ethyl-2-methyl-7-(6-(3-(piperidin-1-yl)propoxy)pyridin-3-yl)-9,10-dihydro-8-oxa-2,4,10a-triazanaphtho[2,1,8-cde]azulen-1(2H)-one], the IC50 at ATM stood at 0.38 nM.

Take `CC[C@@H]1COc2c(-c3ccc(OCCCN(C)C)nc3)ccc3ncc4c(c23)n1c(=O)n4C` [Example A-188, (R)-7-(6-(3-(dimethylamino)propoxy)pyridin-3-yl)-10-ethyl-2-methyl-9,10-dihydro-8-oxa-2,4,10a-triazanaphtho[2,1,8-cde]azulen-1(2H)-one]: on ATM, the IC50 was 0.4 nM.

Consider `COCC1COc2c(-c3ccc(OCCCN4CCCCC4)nc3)c(F)cc3ncc4c(c23)n1c(=O)n4C` (stereo not shown) [Example A-49, 6-fluoro-10-(methoxymethyl)-2-methyl-7-(6-(3-(piperidin-1-yl)propoxy)pyridin-3-yl)-9,10-dihydro-8-oxa-2,4,10a-triazanaphtho[2,1,8-cde]azulen-1(2H)-one], for which the IC50 on ATM was determined as 0.86 nM.

On to `C[C@@H]1CNc2c(-c3ccc(OCCCN4CCCCC4)nc3)ccc3ncc4c(c23)n1c(=O)n4C` [Example A-199, (R)-2,10-dimethyl-7-(6-(3-(piperidin-1-yl)propoxy)pyridin-3-yl)-2,8,9,10-tetrahydro-1H-2,4,8,10a-tetraazanaphtho[2,1,8-cde]azulen-1(2H)-one], for which the values for the IC50 at ATM and in the experiment with ATM-phosphorylated KAP1 were 0.92 nM and 0.78 nM, respectively.
